Laboratory results published in patent publication US20010034362A1, “Pyrrolidine derivatives for vision and memory disorders” (Guilford Pharmaceuticals Inc., priority 1998, published 2001).
Like-named read-outs stand apart in the source and are kept apart here.

Assays:
FKBP12 = FKBP12 (Homo sapiens, UniProt P62942); experiment: Inhibition of peptidyl-prolyl isomerase (rotamase) activity of FKBP, chymotrypsin-coupled assay, apparent Ki; type: biochemical
Description: The inhibition of the prolyl peptidyl cis-trans isomerase activity of FKBP may be measured as an indicator of this affinity. Inhibition of the peptidyl-prolyl isomerase (rotamase) activity of the compounds used in the inventive methods and pharmaceutical compositions can be evaluated by known methods described in the literature (Harding et al., Nature, 1989, 341:758-760; Holt et al. J. Am. Chem. Soc., 115:9923-9938). […] The cis-trans isomerization of an alanine-proline bond in a model substrate, N-succinyl-[…]-nitroanilide, is monitored spectrophotometrically in a chymotrypsin-coupled assay, which releases para-nitroanilide from the trans form of the substrate. […] The reaction is initiated by the addition of […] of substrate (succinyl-[…]-nitroanilide, 5 mg/ml in 2.35 mM LiCl in trifluoroethanol).

[1] = Clearance (Table V comments); type: in vitro ADME
[2] = test system: retinal ganglion cell axons; experiment: Protection of retinal ganglion cell axons from degeneration following optic nerve transection (Table V); type: in vivo; settings: ± SEM
Description: Efficacy of representative compounds from different immunophilin ligand series in protecing retinal gangiou cell axons from degeneration following optic nerve transection is set forth in Table V.

[3] = Table V comments, read-out: Ki rotamase
[4] = apparent Ki, rotamase inhibition, Table A, read-out: K1

Chain of FKBP12 (P62942 whole entry, species assumed): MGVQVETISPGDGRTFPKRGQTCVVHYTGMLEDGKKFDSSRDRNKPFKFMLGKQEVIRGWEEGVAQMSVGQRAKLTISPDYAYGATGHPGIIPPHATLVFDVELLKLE

SMILES	Clearance [1] [µL/min]	Ki (FKBP12; [4]) [µM]	other results
O=C(SCCCc1ccccc1)[C@@H]1CCCN1C(=O)NC12CC3CC(CC(C3)C1)C2 [B]	–	–	Ki (FKBP12; [3]): 0.149 µM
O=C(SCCCc1ccccc1)[C@@H]1CCCN1S(=O)(=O)Cc1ccccc1 [C]	31.1	–	RT97 + RGC axon density 14 days after ON transection (% ON axons rescued) [2]: 60.4% ± 3.1% SEM; Ki (FKBP12; [3]): 0.107 µM
CCC(C)(C)C(=O)C(=O)N1CCC[C@H]1C(=O)OCCCc1ccccc1 [Compound 1, 3-Phenyl-1-propyl (2S)-1-(3,3-dimethyl-1,2-dioxopentyl)-2-pyrrolidinecarboxylate]	–	0.042	–
CCC(C)(C)C(=O)C(=O)N1CCCC1C(=O)OCC=Cc1ccccc1 [Compound 2, 3-phenyl-1-prop-2-(E)-enyl (2S)-1-(3,3-dimethyl-1,2-dioxopentyl)-2-pyrrolidinecarboxylate]	–	0.125	–
CCC(C)(C)C(=O)C(=O)N1CCCC1C(=O)OCC=Cc1cc(OC)c(OC)c(OC)c1 [Compound 4, 3-(3,4,5-trimethoxyphenyl)-1-prop-2-(E)-enyl (2S)-1-(3,3-dimethyl-1,2-dioxopentyl)-2-pyrrolidine carboxylate]	–	0.065	–
CCC(C)(C)C(=O)C(=O)N1CCCC1C(=O)OCC=Cc1ccc2c(c1)OCO2 [Compound 6, 3-(4,5-methylenedioxyphenyl)-1-prop-2-(E)-enyl (2S)-1-(3,3-dimethyl-1,2-dioxopentyl)-2-pyrrolidinecarboxylate]	–	0.16	–
CCC(C)(C)C(=O)C(=O)N1CCCC1C(=O)OCC=CC1CCCCC1 [Compound 8, 3-cyclohexyl-1-prop-2-(E) -enyl (2S) -1-(3,3-dimethyl-1,2-doxopentyl)-2-pyrrolidinecarboxylate]	–	0.6	–
O=C(C(=O)N1CCCC1C(=O)OCCCc1ccccc1)c1cccs1 [Compound 11, 3-phenyl-1-propyl (2S)-1-(1,2-dioxo-2-[2-thienyl])ethyl-2-pyrrolidinecarboxylate]	–	0.092	–
O=C(C(=O)N1CCCC1C(=O)OCCCc1ccccc1)c1nccs1 [Compound 12, 3-phenyl-1-propyl (2S)-1-(1,2-dioxo-2-[2-thiazolyl])ethyl-2-pyrrolidinecarboxylate]	–	0.1	–
O=C(C(=O)N1CCCC1C(=O)OCCCc1ccccc1)c1ccccc1 [Compound 13, 3-phenyl-1-propyl (2S)-1-(1,2-dioxo-2-phenyl)ethyl-2-pyrrolidinecarboxylate]	–	1.97	–
CCC(C)(C)C(=O)C(=O)N1CCCC1C(=O)OCC=Cc1cc(OC)ccc1OC [Compound 15, 3-(2,5-dimethoxyphenyl)-1-prop-2-(E)-enyl (2S)-1-(3,3-dimethyl-1,2-dioxopentyl)-2-pyrrolidine-carboxylate]	–	0.45	–
O=C(C(=O)N1CCCC1C(=O)OCCC(c1ccccc1)c1ccccc1)C1CCCCC1 [Compound 29, 3,3-Diphenyl-1-propyl (2S)-1-cyclohexyl glyoxyl-2-pyrrolidinecarboxylate]	–	0.02	–
O=C(C(=O)N1CCCC1C(=O)OCCC(c1ccccc1)c1ccccc1)c1cccs1 [Compound 30, 3,3-Diphenyl-1-propyl (2S) -1-(2-thienyl) glyoxyl-2-pyrrolidinecarboxylate]	–	0.15	–
O=C(OCCCc1ccccc1)[C@@H]1CCCN1S(=O)(=O)Cc1ccccc1 [D]	–	–	RT97 + RGC axon density 14 days after ON transection (% ON axons rescued) [2]: 58.4% ± 6.4% SEM
CCC(C)(C)C(=O)C(=O)N1CCCC1C(=O)OC(CCc1ccccc1)CCc1ccccc1 (stereo not drawn) [E]	41.8	–	RT97 + RGC axon density 14 days after ON transection (% ON axons rescued) [2]: 56.6% ± 9.4% SEM
CCC(C)(C)C(=O)C(=O)N1CCS[C@@H]1C(=O)OCCCc1cccnc1 [F]	–	–	Ki (FKBP12; [3]): 0.272 µM
O=C(OCCCc1cccnc1)[C@@H]1CCCN1C(=S)NC1CCCCC1 [I]	8.0	–	Ki (FKBP12; [3]): 0.131 µM
CCC(C)(C)C(=O)C(=O)N1CCC[C@H]1C(=O)CCCCc1cccnc1 [J]	1.5	–	–
CCC(C)(C)C(=O)C(=O)N1CCCC[C@H]1C(=O)SCCC(c1ccccc1)c1ccccc1 [K]	5.2	–	RT97 + RGC axon density 14 days after ON transection (% ON axons rescued) [2]: 7.8% ± 3.0% SEM
CCC(C)(C)C(=O)C(=O)N1CCC[C@H]1C(=O)O [L]	5.2	–	RT97 + RGC axon density 14 days after ON transection (% ON axons rescued) [2]: 7.8% ± 3.0% SEM
CCC(C)(C)C(=O)C(=O)N1CCC[C@H]1C(=O)SCCC(c1ccccc1)c1ccccc1 [M]	12.5	–	RT97 + RGC axon density 14 days after ON transection (% ON axons rescued) [2]: −6.3% + 3.9 SEM
CN(C)C(=O)N1CCC[C@H]1C(=O)SCCCc1ccccc1 [N]	21.9	–	Ki (FKBP12; [3]): 0.722 µM
